In patent publication US20120082736A1, “Small-molecule TNF modulator to reduce the side effects of chemotherapy and radiotherapy” (GeneBlue Corporation, priority 2010, published 2012):
Entries after “also recorded” stand apart in the source; their conditions may differ.

Columns and labels:
TNF-α = TNF-α levels in plasma of cisplatin-treated mice (commercial assay kit, eBioscience); format: in vivo; conditions: UTL-5g 15, 30, 60 mg/kg ip 30 min before cisplatin 2.5 mg/kg, daily ×5; pooled plasma
Procedure: FIG. 5. Effect of UTL-5g on TNF-α levels in plasma for mice treated with cisplatin. Gp 1, medium control (saline) only; Gp 2, saline followed by cisplatin (2.5 mg/kg) 30 min later; Gp 3, UTL-5g (15 mg/kg) followed by cisplatin 30 min later; Gp 4, UTL-5g (30 mg/kg) followed by cisplatin 30 min later; Gp 5, UTL-5g (60 mg/kg) followed by cisplatin 30 min later. Y axis represents the relative levels of TNF-α assuming 0% for Gp 1 (Control). Level of TNF-α on the figure is based on the average of 2 readings. […]
Using the samples from the same animal study, TNF-α levels in plasma were analyzed. […]

[1] = test system: C57BL/6 mice, liver irradiation; experiment: Liver irradiation: serum AST and ALT activities (Examples 5-7); format: in vivo
Procedure: FIG. 8. Effect of UTL compounds on AST and ALT with and without radiation C57BL/6 male mice were treated with UTL-5b, -5d, and -5g each in 0.3 mL vehicle containing DMSO/(Cremophor:propylene glycol 4:6 v/v)/saline, 5/5/90 v/v by i.p. injection (30 mg/kg) 1 hr prior to liver irradiation with 15 Gy. Serum was obtained at 2 hr after irradiation and assayed for AST and ALT activities. Data are means±standard deviation (S.D.) * indicates p<0.05, n=4.
Mice were treated with various doses of UTL-5g (3.75, 7.5, 15, 30, and 60 mg/kg, i.p.) 1 hr prior to liver radiation with 15 Gy. Serum was obtained at 2 hr after irradiation and assayed for AST (4a) and ALT activities (4b).
FIG. 11. Radiation dose escalation and radioprotection by UTL-5 g Mice were pre-treated with UTL-5g (60mg/kg, i.p.) at 1 hr prior to radiation dose escalation (0, 5, 15, and 25 Gy). Serum was harvested at 2 hr after injections and was subjected to AST/ALT measurements as described in Methods. Results were compared to control mice received control vehicle. Data are means±standard deviation (* p<0.05, 2-tailed paired t-Test comparing treated and untreated groups, n=4).
In a preliminary study, three UTL compounds (5b, 5d and 5g) were examined for their radioprotective effect in C57BL/6 mice. One hr prior to liver irradiation (15 Gy), animals were treated with the test compounds by i.p. injection (30 mg/kg). Two hr later, the animals were sacrificed and serum AST and ALT enzyme activities were determined.
During the preliminary study, it was found unexpectedly that the vehicle used, DMSO/(Cremophor:propylene glycol […])/saline 5:5:90 v/v was associated with some liver toxicity as indicated by the moderate increase of serum AST and ALT activities in animals treated with vehicle alone.
Based on the preliminary studies, UTL-5g was selected for dose-dependent radioprotective studies. In this study, animals were treated with increasing doses of UTL-5g (from 0 to 60 mg/kg) one hr prior to liver irradiation (15 Gy). Two hr after irradiation, animals were sacrificed and serum AST/ALT enzyme activities and liver TNF-α levels were determined. […] For animals pre-treated with UTL-5g at 30 mg/kg, AST/ALT activity levels were lowered from 135/29 to 89/22 Unit/L, and those pre-treated with UTL-5g at 60 mg/kg, AST/ALT levels were reduced from 135/29 to 74/19 Unit/L, respectively.
Next, we investigated the radioprotective effect of UTL-5g with increased irradiation doses. In this study, animals were pre-treated with UTL-5g at 60 mg/kg and randomly divided into 4 groups. One hr later, they were subjected to liver irradiation at 0, 5, 15 and 25 Gy. Consistent with the previous study, pretreatment with UTL-5 g at 60 mg/kg was radioprotective against 15 Gy as evidenced by the reduction of serum AST activity (103.0 vs. 159.8 Unit/L in UTL-5g and in control vehicle groups, respectively) and ALT activity (17.8 vs. 32.3 Unit/L in UTL-5g and in control vehicle groups respectively) (FIG. 11).

Question: How did the “TNF-α in plasma, effect of pretreatment” value (TNF-α) turn out when Cc1cc(C(=O)Nc2ccc(Cl)cc2Cl)no1 [UTL-5g] was run?
Answer: lowered elevated TNF-α in plasma in a dose-dependent manner; also recorded: lowered the elevated levels of blood TNF-α induced by cisplatin in a dose dependent manner

Question: What about the “serum AST and ALT levels induced by irradiation” value ([1]; 30 mg/kg i.p. 1 hr prior to liver irradiation 15 Gy, serum 2 hr after, C57BL/6 mice, preliminary study) of the same compound?
Answer: the most effective in lowering both AST and ALT enzyme activities

Question: And the “serum AST/ALT activities, dose dependence” value ([1]; UTL-5g 0 to 60 mg/kg i.p. 1 hr before liver irradiation 15 Gy, serum 2 hr after)?
Answer: significantly reduced serum AST/ALT activities in a drug dose-dependent manner

Question: What about the “serum ALT activity” value ([1]; UTL-5g 30 mg/kg 1 hr before 15 Gy, irradiated vehicle 29 (Example 6)) of the same compound?
Answer: 22 Unit/L

Question: What about the “serum AST activity” value ([1]; UTL-5g 30 mg/kg 1 hr before 15 Gy, irradiated vehicle 135 (Example 6)) of the same compound?
Answer: 89 Unit/L

Question: And the “AST and ALT levels” value ([1]; UTL-5g 60 mg/kg 1 hr before 5 Gy)?
Answer: slightly but not significantly changed

Question: And the “serum ALT activity” value ([1]; UTL-5g 60 mg/kg 1 hr before 15 Gy, control vehicle 32.3 (Example 7))?
Answer: 17.8 Unit/L

Question: What about the “serum AST activity” value ([1]; UTL-5g 60 mg/kg 1 hr before 15 Gy, control vehicle 159.8 (Example 7)) of the same compound?
Answer: 103.0 Unit/L

Question: What about the “serum ALT activity” value ([1]; UTL-5g 60 mg/kg 1 hr before 15 Gy, irradiated vehicle 29 (Example 6)) of the same compound?
Answer: 19 Unit/L

Question: What about the “serum AST activity” value ([1]; UTL-5g 60 mg/kg 1 hr before 15 Gy, irradiated vehicle 135 (Example 6)) of the same compound?
Answer: 74 Unit/L

Question: What about the “radioprotection (AST/ALT)” value ([1]; UTL-5g 60 mg/kg 1 hr before 25 Gy) of the same compound?
Answer: only moderate protection

Question: And the “AST and ALT enzyme activities without irradiation” value ([1]; UTL-5g 60 mg/kg alone, animals without irradiation)?
Answer: slightly increased
